Data as given in patent US5994629A, “Positive selection” (priority 1991, dated 1999).
Where a name gives a salt, the structure may show the parent alone. Read-outs that look alike come from different tables or passages of the source.

Legend:
[1] = test system: potato stem segments; experiment: Carbohydrate sources, potato stem segments, 9 weeks; assay type: cell-based; conditions: 5 g/l, 9 weeks; for activity at 5000 µg/mL: Solanum tuberosum
Source text: Similar results are observed with potato stem segments after 9 weeks of culturing.

[2] = test system: leaf discs of tobacco without (GUS-) introduced β-glucuronidase genes; assay type: cell-based, Nicotiana tabacum 'Wisconsin 38'; conditions: test compounds at several concentrations up to 250 μM in MSO
[3] = test system: leaf discs of tobacco with (GUS+) introduced β-glucuronidase genes; assay type: cell-based, Nicotiana tabacum 'Wisconsin 38'; conditions: test compounds at several concentrations up to 250 μM in MSO
[4] = target: β-glucuronidase from E. coli (Escherichia coli, UniProt P05804); experiment: Hydrolysis by β-glucuronidase (GUS), HPLC/TLC; assay type: biochemical
Procedure: […] […] This confirms the identity of the product as a conjugate of BA and β-D-glucuronic acid.
[…] The presence of hydrolysis products is then determined using HPLC and TLC.

[5] = test system: explants; experiment: Inhibition of the toxicity of mannose by methyl-3-O-glucose; assay type: cell-based
Source text: Example 25 is repeated except that the selection/regeneration substrate is supplemented with methyl 3-0-glucose (MOG) at the concentrations indicated in Table 25. The percentage of live explants is registered after 8 weeks.

[6] = test system: Wild type explants; experiment: Shoot regeneration on mannose, sucrose and methyl-3-O-glucose, wild type; assay type: cell-based; conditions: Wild type
[7] = test system: plant material transgenic for the mannose 6-phosphate isomerase gene; experiment: Effect of methyl-3-O-glucose on selection of transgenic shoots on mannose; assay type: cell-based; conditions: mannose 15 g/l, no sucrose
Source text: The transformed plant material is transgenic for the mannose 6-phosphate isomerase gene. After 21 days the selected shoots are harvested.

[8] = test system: explants transgenic for the mannose 6-phosphate isomerase gene; experiment: Shoot regeneration on mannose, sucrose and methyl-3-O-glucose, Man-6-P-isomerase; assay type: cell-based; conditions: Man-6-P-isomerase
[9] = test system: plant material transgenic for the mannose 6-phosphate isomerase gene; experiment: Selection on mannose together with phloridzin; assay type: cell-based; conditions: 0.5 g/l phloridzin
Source text: The transformed plant material is transgenic for the mannose 6-phosphate isomerase gene. After 21 days the selected shoots are harvested. […] Example 29 is repeated except that MOG is substituted by phloridzin. […] This is an example of how cross feeding and the production of escapers can be minimized by the addition of a carbohydrate transport inhibitor.

[10] = MOG 2.5, mannose 0 g/l, sucrose 10 g/l
[11] = MOG 2.5, mannose 5 g/l, sucrose 0 g/l
[12] = MOG 2.5, mannose 5 g/l, sucrose 10 g/l
[13] = MOG 2.5, mannose 10 g/l, sucrose 0 g/l
[14] = MOG 2.5, mannose 10 g/l, sucrose 10 g/l
[15] = MOG 2.5, mannose 20 g/l, sucrose 0 g/l
[16] = MOG 2.5, mannose 20 g/l, sucrose 10 g/l
[17] = MOG 5.0, mannose 0 g/l, sucrose 0 g/l
[18] = MOG 5.0, mannose 0 g/l, sucrose 10 g/l
[19] = MOG 5.0, mannose 5 g/l, sucrose 0 g/l
[20] = MOG 5.0, mannose 5 g/l, sucrose 10 g/l
[21] = MOG 5.0, mannose 10 g/l, sucrose 0 g/l
[22] = MOG 5.0, mannose 10 g/l, sucrose 10 g/l
[23] = MOG 5.0, mannose 20 g/l, sucrose 0 g/l
[24] = MOG 5.0, mannose 20 g/l, sucrose 10 g/l
[25] = mannose 5.0 g/l, first '+ Sucrose' column
[26] = mannose 5.0 g/l, second '+ Sucrose' column
[27] = mannose 7.5 g/l, first '+ Sucrose' column
[28] = mannose 7.5 g/l, second '+ Sucrose' column
[29] = mannose 10.0 g/l, first '+ Sucrose' column
[30] = mannose 10.0 g/l, second '+ Sucrose' column
[31] = mannose 12.5 g/l, first '+ Sucrose' column
[32] = mannose 15.0 g/l, first '+ Sucrose' column

Chain of β-glucuronidase from E. coli (P05804 whole entry, looked up): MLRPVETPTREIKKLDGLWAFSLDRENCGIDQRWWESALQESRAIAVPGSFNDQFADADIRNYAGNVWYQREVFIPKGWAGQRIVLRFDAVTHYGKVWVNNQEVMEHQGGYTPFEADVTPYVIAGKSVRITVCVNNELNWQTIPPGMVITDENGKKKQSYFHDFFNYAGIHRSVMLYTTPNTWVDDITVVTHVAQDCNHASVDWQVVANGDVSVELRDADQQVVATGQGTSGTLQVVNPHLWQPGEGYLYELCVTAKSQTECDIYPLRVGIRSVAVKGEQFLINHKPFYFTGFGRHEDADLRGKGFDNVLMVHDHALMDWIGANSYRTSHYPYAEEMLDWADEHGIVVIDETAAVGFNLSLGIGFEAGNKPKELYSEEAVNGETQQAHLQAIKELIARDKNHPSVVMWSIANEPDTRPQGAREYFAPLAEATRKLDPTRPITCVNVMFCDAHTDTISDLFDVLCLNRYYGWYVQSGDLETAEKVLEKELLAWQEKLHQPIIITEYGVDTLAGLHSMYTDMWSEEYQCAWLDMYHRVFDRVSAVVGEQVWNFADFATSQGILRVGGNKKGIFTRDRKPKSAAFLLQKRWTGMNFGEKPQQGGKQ

O=C(CO)[C@@H](O)[C@H](O)CO [D-xylulose]
# of Shoots per explant [1]: 2.2 | activity at 5000 µg/mL ([1]; read-out: Size % of control): 74% | activity at 5000 µg/mL ([1]; read-out: explants alive % of control): 58%

O=C(O)[C@H]1OC(O)[C@H](O)[C@@H](O)[C@@H]1O (some centres unmarked) [Glucuronic acid]
Shoot formation, GUS- [2]: - ("-" means no shoot formation at concentrations below 250 μM) | Shoot formation, GUS+ [3]: - ("-" means no shoot formation at concentrations below 250 μM)

CC(C)=CCNc1ncn([C@@H]2O[C@H](C(=O)[O-])[C@@H](O)[C@H](O)[C@H]2O)c2ncnc1-2.[Na+] [IP3GN sodium salt, 3-β-D-glucopyranuronosyl-6-(3-methyl-but-2-enylamino)purine, sodium salt]
Shoot formation, GUS- [2]: + ("+" means shoot formation at concentrations below 250 μM) | Hydrolysis by β-glucuronidase (GUS), result in words ([4]; 50 mM sodium phosphate buffer pH 7.0, 37° C., HPLC/TLC): removal of the UV spot corresponding to IP3GN | Shoot formation, GUS+ [3]: + ("+" means shoot formation at concentrations below 250 μM)

CC(C)=CCNc1ncnc2[nH]c(S[C@@H]3O[C@H](C(=O)O)[C@@H](O)[C@H](O)[C@H]3O)nc12 [IP8SGN sodium salt, 6-(3-methyl-but-2-enylamino)purine-8-yl-1-thio-β-D-glucopyranuronic acid, sodium salt]
Shoot formation, GUS- [2]: + ("+" means shoot formation at concentrations below 250 μM) | conversion to the aglycone by GUS ([4]; 1 mg/ml, 2500 units GUS, 24 hours, 37° C., TLC): > 95% | Shoot formation, GUS+ [3]: + ("+" means shoot formation at concentrations below 250 μM)

CO[C@H]1[C@H](O)[C@@H](CO)OC(O)[C@@H]1O (some centres unmarked) [MOG, methyl 3-0-glucose]
percentage of live explants ([5]; MOG 5 g/l, mannose 0 g/l, sucrose 0 g/l): 13 | percentage of live explants ([5]; MOG 5 g/l, mannose 0 g/l, sucrose 10 g/l): 100 | percentage of live explants ([5]; MOG 5 g/l, mannose 5 g/l, sucrose 0 g/l): 54 | percentage of live explants ([5]; MOG 5 g/l, mannose 5 g/l, sucrose 10 g/l): 100 | percentage of live explants ([5]; MOG 5 g/l, mannose 10 g/l, sucrose 0 g/l): 0 | percentage of live explants ([5]; MOG 5 g/l, mannose 10 g/l, sucrose 10 g/l): 5 | percentage of live explants ([5]; MOG 10 g/l, mannose 0 g/l, sucrose 0 g/l): 47 | percentage of live explants ([5]; MOG 10 g/l, mannose 0 g/l, sucrose 10 g/l): 100 | percentage of live explants ([5]; MOG 10 g/l, mannose 5 g/l, sucrose 0 g/l): 82 | percentage of live explants ([5]; MOG 10 g/l, mannose 5 g/l, sucrose 10 g/l): 100 | percentage of live explants ([5]; MOG 10 g/l, mannose 10 g/l, sucrose 0 g/l): 9 | percentage of live explants ([5]; MOG 10 g/l, mannose 10 g/l, sucrose 10 g/l): 41 | percentage of live explants ([5]; MOG 20 g/l, mannose 0 g/l, sucrose 0 g/l): 50 | percentage of live explants ([5]; MOG 20 g/l, mannose 0 g/l, sucrose 10 g/l): 100 | percentage of live explants ([5]; MOG 20 g/l, mannose 5 g/l, sucrose 0 g/l): 98 | percentage of live explants ([5]; MOG 20 g/l, mannose 5 g/l, sucrose 10 g/l): 100 | percentage of live explants ([5]; MOG 20 g/l, mannose 10 g/l, sucrose 0 g/l): 88 | percentage of live explants ([5]; MOG 20 g/l, mannose 10 g/l, sucrose 10 g/l): 100 | regenerated shoots as a percentage of shoots on substrates without mannose and methyl-3-0-glucose ([6]; MOG 2.5, mannose 0 g/l, sucrose 0 g/l, 11 weeks): 0 | regenerated shoots as a percentage of shoots on substrates without mannose and methyl-3-0-glucose [6, 10]: 53 | regenerated shoots as a percentage of shoots on substrates without mannose and methyl-3-0-glucose [6, 11]: 0 | regenerated shoots as a percentage of shoots on substrates without mannose and methyl-3-0-glucose [6, 12]: 6 | regenerated shoots as a percentage of shoots on substrates without mannose and methyl-3-0-glucose [6, 13]: 0 | regenerated shoots as a percentage of shoots on substrates without mannose and methyl-3-0-glucose [6, 14]: 0 | regenerated shoots as a percentage of shoots on substrates without mannose and methyl-3-0-glucose [6, 15]: 0 | regenerated shoots as a percentage of shoots on substrates without mannose and methyl-3-0-glucose [6, 16]: 0 | regenerated shoots as a percentage of shoots on substrates without mannose and methyl-3-0-glucose [6, 17]: 0 | regenerated shoots as a percentage of shoots on substrates without mannose and methyl-3-0-glucose [6, 18]: 17 | regenerated shoots as a percentage of shoots on substrates without mannose and methyl-3-0-glucose [6, 19]: 0 | regenerated shoots as a percentage of shoots on substrates without mannose and methyl-3-0-glucose [6, 20]: 41 | regenerated shoots as a percentage of shoots on substrates without mannose and methyl-3-0-glucose [6, 21]: 0 | regenerated shoots as a percentage of shoots on substrates without mannose and methyl-3-0-glucose [6, 22]: 0 | regenerated shoots as a percentage of shoots on substrates without mannose and methyl-3-0-glucose [6, 23]: 0 | regenerated shoots as a percentage of shoots on substrates without mannose and methyl-3-0-glucose [6, 24]: 0 | GUS+ shoots/explant ([7]; MOG 2.5 g/l): 0.2 | GUS+ shoots/sel. shoots (%) ([7]; MOG 2.5 g/l): 57% | GUS+ shoots/explant ([7]; MOG 5.0 g/l): 1.0 | GUS+ shoots/sel. shoots (%) ([7]; MOG 5.0 g/l): 81% | GUS+ shoots/explant ([7]; MOG 10 g/l): 0.5 | GUS+ shoots/sel. shoots (%) ([7]; MOG 10 g/l): 89% | GUS+ shoots/explant ([7]; MOG 15 g/l): 0.6 | GUS+ shoots/sel. shoots (%) ([7]; MOG 15 g/l): 53% | regenerated shoots as a percentage of shoots on substrates without mannose and methyl-3-0-glucose ([8]; MOG 2.5, mannose 0 g/l, sucrose 0 g/l): 0 | regenerated shoots as a percentage of shoots on substrates without mannose and methyl-3-0-glucose [8, 10]: 0 | regenerated shoots as a percentage of shoots on substrates without mannose and methyl-3-0-glucose [8, 11]: 7 | regenerated shoots as a percentage of shoots on substrates without mannose and methyl-3-0-glucose [8, 12]: 64 | regenerated shoots as a percentage of shoots on substrates without mannose and methyl-3-0-glucose [8, 13]: 64 | regenerated shoots as a percentage of shoots on substrates without mannose and methyl-3-0-glucose [8, 14]: 86 | regenerated shoots as a percentage of shoots on substrates without mannose and methyl-3-0-glucose [8, 15]: 107 | regenerated shoots as a percentage of shoots on substrates without mannose and methyl-3-0-glucose [8, 16]: 200 | regenerated shoots as a percentage of shoots on substrates without mannose and methyl-3-0-glucose [8, 17]: 0 | regenerated shoots as a percentage of shoots on substrates without mannose and methyl-3-0-glucose [8, 18]: 0 | regenerated shoots as a percentage of shoots on substrates without mannose and methyl-3-0-glucose [8, 19]: 0 | regenerated shoots as a percentage of shoots on substrates without mannose and methyl-3-0-glucose [8, 20]: 64 | regenerated shoots as a percentage of shoots on substrates without mannose and methyl-3-0-glucose [8, 21]: 28 | regenerated shoots as a percentage of shoots on substrates without mannose and methyl-3-0-glucose [8, 22]: 36 | regenerated shoots as a percentage of shoots on substrates without mannose and methyl-3-0-glucose [8, 23]: 128 | regenerated shoots as a percentage of shoots on substrates without mannose and methyl-3-0-glucose [8, 24]: 86

O=C(CCc1ccc(O)cc1)c1c(O)cc(O)cc1O[C@@H]1O[C@H](CO)[C@@H](O)[C@H](O)[C@H]1O [Phloridzin, phloridzin]
GUS+ Shoots/Expl. [9, 25]: 1.2 | GUS+ Shoots/Sel. Shoots [9, 25]: 94.0% | GUS+ Shoots/Expl. [9, 26]: 0.08 | GUS+ Shoots/Sel. Shoots [9, 26]: 100.0% | GUS+ Shoots/Expl. [9, 27]: 0.5 | GUS+ Shoots/Sel. Shoots [9, 27]: 88.0% | GUS+ Shoots/Expl. [9, 28]: 0.5 | GUS+ Shoots/Sel. Shoots [9, 28]: 78.5% | GUS+ Shoots/Expl. [9, 29]: 0.5 | GUS+ Shoots/Sel. Shoots [9, 29]: 100.0% | GUS+ Shoots/Expl. [9, 30]: 0.5 | GUS+ Shoots/Sel. Shoots [9, 30]: 95% | GUS+ Shoots/Expl. [9, 31]: 0.03 | GUS+ Shoots/Sel. Shoots [9, 31]: 100% | GUS+ Shoots/Expl. ([9]; mannose 12.5 g/l, second '+ Sucrose' column): 0.0 | GUS+ Shoots/Expl. [9, 32]: 0.03 | GUS+ Shoots/Sel. Shoots [9, 32]: 100% | GUS+ Shoots/Expl. ([9]; mannose 15.0 g/l, second '+ Sucrose' column): 0.0

C/C(=C\CNc1ncnc2[nH]cnc12)CO [Zeatin]
Shoot formation, GUS- [2]: + ("+" means shoot formation at concentrations below 250 μM) | Shoot formation, GUS+ [3]: + ("+" means shoot formation at concentrations below 250 μM)
